Reference: US20060089329A1, “Ready-to-use gemcitabine solution concentrates” (priority 2004, published 2006)
In brackets after ≈: the same amount, converted by molar mass. Structures can show the parent of a compound that is named as a salt. Where two headings read alike, the source gives them in different places.

How the values were obtained:
[1] = Saturation concentration of gemcitabine in aqueous ethyl alcohol solutions (Example 3); assay type: physicochemical; details: interpolation (polynomial of the 6th degree), about 66 percent by volume of ethyl alcohol, pH 10±0.5
Description: In order to determine the saturation concentration of gemcitabine in aqueous ethyl alcohol solutions, gemcitabine solutions with various volume percentages of ethyl alcohol were prepared and analyzed.
Gemcitabine hydrochloride was placed beforehand in the mixing vessel, reacted with a stoichiometric amount of alkalizer (1N sodium hydroxide) dissolved in water, then treated each time with 80% of the required amounts of water for injection as determined in preliminary tests as well as with the amounts of ethyl alcohol required each time.
The components contained in the batch were subsequently dissolved at room temperature (19-23° C.) while agitating for 6 hours such that an undissolved sediment of gemcitabine hydrochloride remained in the mixing vessel. The pH of the batch was determined potentiometrically and, when required, adjusted to a pH of 10 with 1N sodium hydroxide or 1N hydrochloric acid, so as to achieve at this pH a complete conversion of the gemcitabine hydrochloride to the dissolved gemcitabine base.
The batch was stored for 24 hours at 19-23° C. […] These batches were then filtered until free of particles, and the gemcitabine content was determined by HPLC.

[2] = Maximum solubility of gemcitabine hydrochloride at 66 vol. % ethyl alcohol after dissolving at 35-45° C. (Example 4); assay type: physicochemical; details: dissolved at 35-45° C. for 6 hours, cooled, stored 24 hours at 19-23° C.
Description: The maximum solubility of gemcitabine hydrochloride was determined with further use of 1N sodium hydroxide, water for injection and absolute ethyl alcohol in a proportion of 66 percent by volume recognized as optimum for that purpose, at increased solution temperatures (35-45° C. for 6 hours under agitation) and subsequent cooling to room temperature (19-23° C.), and then stored for 24 hours at 19-23° C.

[3] = cited from earlier work

Structure (SMILES) | maximum gemcitabine solubility ([1]; hydrochloride) [mg/mL] | content in particle-free supernatant (maximum solubility) ([2]; hydrochloride) [mg/mL] | solubility at 6 h ([1]; aqueous ethyl alcohol solution, 21 °C, pH 10, aqueous with cosolvent or surfactant or cyclodextrin, thermodynamic from solid, read-out: maximum gemcitabine solubility) [mg/mL] | solubility at 6 h ([2]; aqueous ethyl alcohol solution, aqueous with cosolvent or surfactant or cyclodextrin, thermodynamic from solid, read-out: content in particle-free supernatant (maximum solubility)) [mg/mL] | solubility in water ([3]; pH of 5) [mg/mL] | solubility in water ([3]; pH of 7) [mg/mL] | solubility in water ([3]; pH of 9) [mg/mL] | solubility in water ([3]; pH range of 2.7 to 3.3)
Nc1ccn([C@@H]2O[C@H](CO)[C@@H](O)C2(F)F)c(=O)n1 [gemcitabine hydrochloride] | 55 | 108.3 |  |  |  |  |  | 
Nc1ccn([C@@H]2O[C@H](CO)[C@@H](O)C2(F)F)c(=O)n1 [gemcitabine, 2′-deoxy-2′,2′-difluorocytidine] |  |  | 50 (≈ 190 mM) | 95.1 (≈ 361 mM) | 16.0 (≈ 60.8 mM) | 15.3 (≈ 58.1 mM) | 15.8 (≈ 60 mM) | about 38 mg/ml
